Key:
[1] = test system: human lung cancer cells A549; test: MTT growth inhibition, A549 cells; format: cell-based; conditions: 72 h after treatment, read-out: Drug concentration (IC50) at which 50% cancer cells survived
[2] = test system: human lymphoma cells U937; test: MTT growth inhibition, U937 cells; format: cell-based; conditions: Homo sapiens, U-937, 72 h after treatment, read-out: Drug concentration (IC50) at which 50% cancer cells survived
How it was run: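 At 48 h and 72 h after dosing, MTT was added for 4 h in serum-free DMEM, formazan was dissolved in DMSO and absorbance read at 570 nm. Relative survival was calculated against untreated cell control, and IC50 derived by regression from three repeat experiments.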

[3] = test system: human liver cancer cells HepG2; test: MTT growth inhibition, HepG2 cells; format: cell-based; conditions: 72 h after treatment, read-out: Drug concentration (IC50) at which 50% cancer cells survived
[4] = test system: human oral epidermoid cancer cells KBV200; test: MTT growth inhibition, KBV200 cells; format: cell-based; conditions: 72 h after treatment, read-out: Drug concentration (IC50) at which 50% cancer cells survived
[5] = test system: human breast cancer cells MDA-MB231 xenograft; test: In-vivo growth of MDA-MB231 xenografts in nude mice; design: species or system BALB/c nude mice; conditions: Mus musculus, MDA-MB-231, ip, MB-231 xenograft, vs DMSO solvent control, read-out: Curative effect (inhibition rate %) of tumor weight
Protocol: (§1) RPMI1640 and DMEM culture solutions: Hyclone Company; inactivated fetal bovine serum: Hyclone Company, preserved at −20° C.; trypsin: Amersco Company; and 0.4% trypan blue: Sigma Company;
(§2) (3) Observation of growth of tumors in nude mice: the activities (including food intake, traits of urine and stool, mental state and the like) of the nude mice and the tumor growth time and growth situation of the transplanted tumors were observed every day, the body weight and the size of the tumors were measured once every 2-3 days. The long diameter a and the short diameter b (mm) of each tumor were measured by a vernier caliper to calculate the volume, wherein the volume V=π1/2·ab^2 (mm^3);
(§3) (4) sacrifice of animals: the mice were anesthetized and photoed after treatment experiments; the nude mice were sacrificed by breaking neck, the tumor tissues were stripped under sterile conditions and the weight of the tumors was weighed; and the effects of the drugs on pathology and toxicity of the various organs and tissues were detected.

[6] = test system: human liver cancer cells SMMC7721 xenograft; test: In-vivo growth of SMMC7721 xenografts in nude mice; design: species or system BALB/c nude mice; conditions: Mus musculus, SMMC-7721, ip, S-7721 xenograft, vs DMSO solvent control, read-out: Curative effect (inhibition rate %) of tumor weight
Protocol: as §1, §2, §3

[7] = test system: human pancreatic cancer cells PANC-1 xenograft; test: In-vivo growth of PANC-1 xenografts in nude mice; design: species or system BALB/c nude mice; conditions: Mus musculus, ip, vs DMSO solvent control, read-out: Curative effect (inhibition rate %) of tumor weight
Protocol: as §1, §2, §3

Akt = test: Western Blotting, Akt level; format: cell-based; conditions: human liver cancer cells, Lewis lung cancer cells and other cancer cell lines and tumor tissues, read-out: Effective concentration (IC50) for inhibition of Akt
From the text: (§4) Antibodies: primary antibodies of VEGFR, EGFR, c-Met, K-Ras, H-Ras, Akt, NF-κB, Cyclin D1, ER-alpha, Dvl-1, Dvl-2, Dvl-3, MMP-9, MMP2, β-catenin, Bcl-2, Bax, p53, p21, E-cadherin and Caspase3 protein, purchased from American Cell Signaling Technology Company and Santa Cruz Technology Company; and H3 acetylation, H4 acetylation and HDAC (HDAC3, HDAC4 and the like) Antibody Sample Kits, purchased from Cell Signaling Technology Company of the U.S.
(§5) (3) polyacrylamide gel electrophoresis (SDS-PAGE): an equal amount of protein lysate sample was used to separate protein, film transfer, and blocking, treated with appropriate primary antibodies and secondary antibodies in sequence, and the film was washed, then the color was developed with ECL kit, and a blot protein band was detected by exposure of an X-ray film; and a Gel-Pro Analyzer was used for quantitative analysis of gray degree, optical density value of the control group and the drug treatment group in various concentration were respectively compared with that of internal reference, the obtained ratios were respectively compared with the control group, and the protein expression level was semi-quantified.

K-Ras = test: Western Blotting, K-Ras level; format: cell-based; conditions: human liver cancer cells, Lewis lung cancer cells and other cancer cell lines and tumor tissues, read-out: Effective concentration (IC50) for inhibition of K-Ras
From the text: as §4, §5

VEGFR2 = test: Western Blotting, VEGFR2 level; format: cell-based; conditions: human liver cancer cells, Lewis lung cancer cells and other cancer cell lines and tumor tissues, read-out: Effective concentration (IC50) for inhibition of VEGFR2
From the text: as §4, §5

EGFR = test: Western Blotting, EGFR level; format: cell-based; conditions: human liver cancer cells, Lewis lung cancer cells and other cancer cell lines and tumor tissues, read-out: Effective concentration (IC50) for inhibition of EGFR
From the text: as §4, §5

[8] = 60 mg/kg intraperitoneal once a day
[9] = 90 mg/kg intraperitoneal once a day

Work on `CCNC(=O)CC[C@@H](NC(=O)c1cc2cc(Cl)cc(Cl)c2oc1=O)C(=O)OCC` [Compound Ig, (R)-2-(6,8-dichloro-2-oxo-2H-benzopyran-3-carboxamido)-5-ethylamino-5-oxo-pentanoic ethyl ester] yielded an IC50 [1] of 45 µM, an IC50 [2] of 38 µM and an IC50 [3] of 46 µM. For the same compound, the IC50 [4] was 84 µM, the inhibition in vivo at 60 mg/kg [5, 8] was 59.1% and the inhibition in vivo at 90 mg/kg [5, 9] was 72.1%. For the same compound, the inhibition in vivo at 60 mg/kg [6, 8] was 53.6%, the inhibition in vivo at 90 mg/kg [6, 9] was 70.6% and the inhibition in vivo at 60 mg/kg [7, 8] was 55.6%. The inhibition in vivo at 90 mg/kg [7, 9] was 68.9%, the IC50 (Akt) was under 70 µM and the IC50 (K-Ras) was under 65 µM. It also gave an IC50 (VEGFR2) of under 100 µM and an IC50 (EGFR) of under 100 µM.

Source: patent US9518038B2, “Condensation product of theanine derivative and carboxylic acid coumarin derivative, its intermediate, preparation method and use thereof” (SHANDONG YINGDONG YINGHAO BIOTECHNOLOGY, INC., priority 2012, dated 2016)
